Measurements reported in patent publication US4141899A, “4,5,6,7-Tetrahydroimidazo-[4,5-c]-pyridine derivatives” (Societa' Farmaceutici Italia S.p.A., priority 1976, dated 1979).
Read-outs that look alike come from different tables or passages of the source.

Assays:
Type in all cases: in vivo, Sprague-Dawley male rats
[1] = tested on: chromodacryorhea induced by carbacholine; assay: Anticholinergic activity in rats (antagonism against chromodacryorhea induced by carbacholine); conditions: for ED50: Rattus norvegicus, po, read-out: anticholinergic ED50 p.o. (B); for B/A (ratio of ED50's for oral anti-cholinergic and anti-ulcer activities): B = anticholinergic ED50, A = antiulcer ED50
Text: 3. Anticholinergic activity in rats. […] J. Pharm. […] From 3 to 5 Sprague-Dawley male rats, 250 g body weight, have been employed for each group. […] The compound reference numbers are explained in the Examples below.

gastric secretion = assay: Inhibition of gastric secretion in rats (pylorus ligature technique); conditions: Rattus norvegicus, sc, s.c. at the time of pylorus ligature, 4 h, read-out: Antisecretory ED50 s.c.
Procedure: 2. […] Gastric antisecretory activity was evaluated in rats by the pylorus ligature technique.
Six Sprague-Dawley male rats (110-130 g) were used for each group. Twenty-four hours before the test, the rats were deprived of food but their water supply was maintained.
On the day of the operation, the pylorus was ligated under light ether anaesthesia. Four hours after the ligature, the rats were sacrificed, the stomach secretion was collected and centrifuged at 3500 r.p.m. for 10 minutes, and the volume, less sediment, was determined. The amount of the free hydrochloric acid in the gastric juice was determined by titration against 0.01N sodium hydroxide, using Topfer's Indicator.
Each compound was injected subcutaneously at the time of ligature.

restraint ulcer = assay: Inhibition of restraint ulcer in rats; conditions: Rattus norvegicus
Procedure: 1. […] Six Sprague-Dawley male rats (100-200 g) fasted for 24 hours were used for each group.
A square flexible small-mesh wire netting was used for immobilization. After 4 hours immobilization the rats were sacrificed, their stomachs were removed, and lesions counted under a dissecting microscope.
The compounds were administered subcutaneously (s.c.) immediately before the immobilization or orally (os) one hour before.

[2] = po, p.o. one hour before 4 h immobilization, read-out: Antiulcer ED50 p.o (A)
[3] = sc, s.c. immediately before 4 h immobilization, read-out: Antiulcer ED50 s.c.
[4] = rats, p.o., carbacholine-induced chromodacryorhea

Structure (SMILES)	ED50 [1] [mg/kg]	B/A (ratio of ED50's for oral anti-cholinergic and anti-ulcer activities) ([1]; rats, p.o.)	B/A (ratio of ED50's for oral anti-cholinergic and anti-ulcer activities) ([1]; rats, p.o., listed as atropine)	ED50 (gastric secretion) [mg/kg]	ED50 (restraint ulcer; [2]) [mg/kg]	ED50 (restraint ulcer; [3]) [mg/kg]	ED50 [1, 4] [mg/kg]	B/A (ratio of ED50's for oral anti-cholinergic and anti-ulcer activities) ([1]; rats, p.o., listed as methiamide)
CN1[C@@H]2CC[C@H]1C[C@@H](OC(=O)C(CO)c1ccccc1)C2 (stereo partly shown) [Atropine, reference compound]	0.8	2	about 2	0.1	0.4	0.02		
CNC(=S)NCCSCc1nc[nH]c1C [Methiamide, reference compound]		1.3		60	64	14	85	about 2
CNC(=S)N1CCc2[nH]cnc2C1 [compound 1068, 5-(N-methyl-thiocarbamoyl)-4,5,6,7-tetrahydroimidazo-[4,5-c]-pyridine]		> 40		> 50	2.4	0.6	> 100	
CC(C)NC(=S)N1CCc2[nH]cnc2C1 [compound 1087, 5-(N-isopropyl-thiocarbamoyl)-4,5,6,7-tetrahydro-imidazo-[4,5-c]-pyridine]		0.6		6	3.1	0.9	2	
S=C(Nc1ccccc1)N1CCc2[nH]cnc2C1 [compound 1116, 5-(N-Phenyl-thiocarbamoyl)-4,5,6,7-tetrahydro-imidazo-[4,5-c]-pyridine]				23	> 34	> 10		
CCC1c2nc[nH]c2CCN1C(=S)NC(C)C (stereo not shown) [compound 1184, 4-Ethyl-5-(N-isopropyl-thiocarbamoyl)-4,5,6,7-tetrahydro-imidazo-[4,5-c]-pyridine]				22	11	0.64	10	
CC(C)NC(=S)N1CCc2ncn(C)c2C1 [compound 1286]		> 5.8		34	8.5	0.85	> 50	
CCNC(=S)N1CCc2[nH]cnc2C1 [compound 1293, 5-(N-ethyl-thiocarbamoyl)-4,5,6,7-tetrahydro-imidazo-[4,5-c]-pyridine]				8	25	6		
CCC1c2nc[nH]c2CCN1C(=O)NC(C)C (stereo not shown) [compound 1316, 4-Ethyl-5-(N-isopropyl-carbamoyl)-4,5,6,7-tetrahydro-imidazo-[4,5-c]-pyridine]		10		50	6.6	0.75	70	
CC(C)NC(=O)N1CCc2[nH]cnc2C1 [compound 1348, 5-(N-isopropyl-carbamoyl)-4,5,6,7-tetrahydro-imidazo-[4,5-c]-pyridine]		14		18	0.55	0.1	7.8	
CNC(=O)N1CCc2[nH]cnc2C1 [compound 1350, 5-(N-methyl-carbamoyl)-4,5,6,7-tetrahydro-imidazo-[4,5-c]-pyridine]		> 18		> 50	5.6	6.5	> 100	
S=C(NC1CC1)N1CCc2[nH]cnc2C1 [compound 1359, 5-(N-cyclopropyl-thiocarbamoyl)-4,5,6,7-tetrahydro-imidazo-[4,5-c]-pyridine]		25		40	1.8	5	45.5	
S=C(NC1CCCC1)N1CCc2[nH]cnc2C1 [compound 1360, 5-(N-cyclopentyl-thiocarbamoyl)-b 4,5,6,7-tetrahydro-imidazo-[4,5-c]-pyridine]		13		19	5.6	> 10	76	
CCCNC(=S)N1CCc2[nH]cnc2C1 [compound 1361, 5-(N-n-propyl-thiocarbamoyl)-4,5,6,7-tetrahydro-imidazo-[4,5-c]-pyridine]				50	25	10		
O=C(NC1CC1)N1CCc2[nH]cnc2C1 [compound 1365, 5-(N-cyclopropyl-carbamoyl)-4,5,6,7-tetrahydro-imidazo-[4,5-c]-pyridine]		5.5		50	3.8	2	21	
O=C(NC1CCCC1)N1CCc2[nH]cnc2C1 [compound 1366, 5-(N-cyclopentyl-carbamoyl)-4,5,6,7-tetrahydro-imidazo-[4,5-c]-pyridine]		2.6		17	3.8	0.75	10	
CC(C)NC(=S)N1CCc2[nH]cnc2C1C1CCCCC1 (stereo not shown) [compound 1367, 4-Cyclohexyl-5-(N-isopropyl-thiocarbamoyl)-4,5,6,7-tetrahydro-imidazo-[4,5-c]-pyridine]		> 18		> 50	6	3.3	> 100	
CCC1c2c(ncn2CC)CCN1C(=S)NC(C)C (stereo not shown) [compound 1399, 3,4-Diethyl-5-(N-isopropyl-thiocarbamoyl)-4,5,6,7-tetrahydroimidazo-[4,5-c]-pyridine]		> 25			4	3.5	> 100	
CCC1c2c(ncn2CC)CCN1C(=O)NC(C)C (stereo not shown) [compound 1400, 3,4-Diethyl-5-(N-isopropyl-carbamoyl)-4,5,6,7-tetrahydro-imidazo-[4,5-c]-pyridine]		> 5.5		50	18	10	> 100	
CCC1c2c(ncn2C)CCN1C(=O)NC(C)C (stereo not shown) [compound 1404, 3-Methyl-4-ethyl-5-(N-isopropyl-carbamoyl)-4,5,6,7-tetrahydroimidazo-[4,5-c]-pyridine]				> 50	34	10		
CCC1c2nc[nH]c2CCN1C(=N)NC(=O)c1ccccc1 (stereo not shown) [compound 1448, 4-Ethyl-5-(N-benzoylguanyl)-4,5,6,7-tetrahydroimidazo-[4,5-c]-pyridine]		> 4		> 50	22	> 10	> 100	
N=C(NC(=O)c1ccccc1)N1CCc2[nH]cnc2C1 [compound 1450, 5-(N-benzoylguanyl)-4,5,6,7-tetrahydroimidazo-[4,5-c]-pyridine]				> 50	34	> 10		
CC(C)NC(=O)N1CCc2[nH]cnc2C1c1ccncc1 (stereo not shown) [compound 1467, 4-(4-pyridyl)-5-(N-isopropyl-carbamoyl)-4,5,6,7-tetrahydroimidazo-[4,5-c]-pyridine]				> 50	50	7		
